In PubChem BioAssay AID2060487 (Molecular Pharmacology Branch, DTP, NCI, 2025):

Test system: 997537-175-T-J1-PDC complex spheroid viability
Test: Anticancer human tumor 997537-175-T-J1-PDC patient-derived colon adenocarcinoma cell line growth inhibition [GQUAD]
Conditions: for IC50: curve of first compound; for viability, T/C: stronger effect = lower value; active = viability on the fitted dose curve at most 10% of control; inactive = the rest
Text: DNA G-quadruplex Stabilizer Agents in Combinations in Complex Spheroids
A high-throughput screen of multi-cell type tumor spheroids was designed to identify active combinations of DNA G-quadruplex stabilizer agents and targeted small molecules. Complex spheroids include a stromal component modeled by human endothelial cells (HUVEC) and fibroblasts modeled by human mesenchymal stem cells (MSCs). The concentration ranges selected for each drug and investigational agent were based upon clinically achievable concentrations if the clinical Cmax of the agent was known.
Compounds. The drugs and investigational agents: pidnarulex (CX-5461; NSC782164), APTO-253 (NSC789042), BRACO-19 (NSC847499), peposertib (NSC802822), ceralasertib (NSC780249), elimusertib (NSC800525), camonsertib (NSC841442), AZD-1390 (NSC803789), olaparib (NSC753686), talazoparib (NSC767125), ART-558 (NSC835418), sotorasib (NSC818433), MRTX-1133 (NSC836407), SN-38 (NSC673596), topotecan (NSC609699), etoposide (NSC141540), doxorubicin (NSC123127), gemcitabine (NSC613327), 5-fluorouracil (NSC19893), paclitaxel (NSC125973), vemurafenib (NSC761431), panobinostat (NSC761190), R-306465 (JNJ-16241199; NSC773264), adavosertib (NSC754352), TP-3654 (NSC805149), carboplatin (NSC241240), KSQ-4279 (NSC840948), and staurosporine (NSC755774) were obtained from the National Cancer Institute (NCI) Developmental Therapeutics Program Chemical Repository (34). The FDA-approved anticancer drug set is available from the NCI Developmental Therapeutics Program. […] The stock solutions were prepared in dimethyl sulfoxide (DMSO, Sigma-Aldrich, St. Louis, MO, cat. D2650) at 800-fold the tested concentration and stored at -70 degrees C prior to their use. All drugs and investigational agents were tested over a range starting from a high concentration at or near the clinical Cmax and decreasing in half-log increments. If the clinical Cmax for an agent had not been determined, the highest concentration tested was 10 microM.
2.3 Cell Culture. All cells were maintained in an incubator at 37 degrees C and 5% CO2 with 95% humidity. The PDC lines were cultured according to standard operating procedures established by the NCI PDMR. All PDCs were thawed and cultured in Matrigel-coated flasks prepared with a working solution of 1X Ham's F-12 nutrient mix, without supplementation (Invitrogen, cat. 11765054), 100 U/mL penicillin-streptomycin (Invitrogen, cat. 15140122), and 2.5% Matrigel (Corning Inc., cat. 354248) for the first three passages. The 857933-349-R-J2-PDC line was cultured in 6C/Colon 1B media, which includes advanced DMEM/F-12 (Thermo Fisher Scientific, cat. 12634028), 10 mM HEPES (Thermo Fisher Scientific, cat. 15630080), 1X GlutaMAX supplement (Thermo Fisher Scientific, cat. 35050061), 0.1 mg/mL primocin (InvivoGen, cat. ant-pm-2), 10% defined fetal bovine serum, heat inactivated (HyClone Laboratories Inc., cat. SH30070.03HI), 50% L-WRN conditioned media (ATCC, cat. CRL-3276), 1.25 mM N-Acetyl-L-cysteine (Sigma-Aldrich, cat. A9165), 10 mM nicotinamide (Sigma-Aldrich, cat. N0636), 1X B-27 supplement (Thermo Fisher Scientific, cat. 17504044), 1X N-2 supplement (Thermo Fisher Scientific, cat. 17502048), 10 microM Y-27632 dihydrochloride (Tocris Bioscience, cat. 1254), and 50 ng/mL human EGF recombinant protein (Thermo Fisher Scientific, cat. PHG0311). The 485176-168-R4-J1-PDC line was cultured in Panc media, which includes all 6C/Colon 1B media components plus 100 ng/mL human FGF-10 (Thermo Fisher Scientific, cat. 100-26), 500 nM SB-431542 (Selleckchem, cat. S1067), and gastrin (Tocris, cat. 3006).
[…]

[1] = second compound 0.0316 µM, first compound 0.0316 µM
[2] = second compound 0.0316 µM, first compound 0.316 µM
[3] = second compound 0.1 µM, first compound 0.0316 µM
[4] = second compound 0.1 µM, first compound 0.316 µM
[5] = second compound 0.316 µM, first compound 0.0316 µM
[6] = second compound 0.316 µM, first compound 0.316 µM
[7] = second compound 1 µM, first compound 0.0316 µM
[8] = second compound 1 µM, first compound 0.316 µM
[9] = second compound 3.16 µM, first compound 0.0316 µM
[10] = second compound 3.16 µM, first compound 0.316 µM
[11] = second compound 10 µM, first compound 0.0316 µM
[12] = second compound 10 µM, first compound 0.316 µM
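Note: spheroids exposed to the agents for 7 days.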

CCc1c2c(nc3ccc(O)cc13)-c1cc3c(c(=O)n1C2)COC(=O)[C@]3(O)CC + Cc1cnc(CNC(=O)c2c(=O)c3ccc(N4CCCN(C)CC4)nc3n3c2sc2ccccc23)cn1
11.4 nM: IC50 (second compound 0.316 µM)
8.07 nM: IC50 (second compound 0.0316 µM)
inactive: viability, T/C (second compound 0.0316 µM, first compound 0.000999 µM) 101% | viability, T/C (second compound 0.0316 µM, first compound 0.00316 µM) 70.3% | viability, T/C (second compound 0.0316 µM, first compound 0.00999 µM) 50.2% | viability, T/C [1] 17.3% | viability, T/C (second compound 0.1 µM, first compound 0.000999 µM) 95.2% | viability, T/C (second compound 0.1 µM, first compound 0.00316 µM) 85.8% | viability, T/C (second compound 0.1 µM, first compound 0.00999 µM) 57% | viability, T/C [3] 13.7% | viability, T/C (second compound 0.316 µM, first compound 0.000999 µM) 101% | viability, T/C (second compound 0.316 µM, first compound 0.00316 µM) 73.4% | viability, T/C (second compound 0.316 µM, first compound 0.00999 µM) 63.1% | viability, T/C [5] 15.6% | viability, T/C (second compound 1 µM, first compound 0.000999 µM) 109% | viability, T/C (second compound 1 µM, first compound 0.00316 µM) 69.2% | viability, T/C (second compound 1 µM, first compound 0.00999 µM) 42.1% | viability, T/C [7] 28.1% | viability, T/C (second compound 1 µM, first compound 0.0999 µM) 9.78% | viability, T/C (second compound 3.16 µM, first compound 0.000999 µM) 91.8% | viability, T/C (second compound 3.16 µM, first compound 0.00316 µM) 80.2% | viability, T/C (second compound 3.16 µM, first compound 0.00999 µM) 54.9% | viability, T/C [9] 32.5% | viability, T/C (second compound 3.16 µM, first compound 0.0999 µM) 8.3% | viability, T/C (second compound 10 µM, first compound 0.000999 µM) 81.3% | viability, T/C (second compound 10 µM, first compound 0.00316 µM) 71.1% | viability, T/C (second compound 10 µM, first compound 0.00999 µM) 59.7% | viability, T/C [11] 19.4%
12.7 nM: IC50 (second compound 10 µM)
active: viability, T/C (second compound 0.0316 µM, first compound 0.0999 µM) 6.2% | viability, T/C [2] 2.76% | viability, T/C (second compound 0.1 µM, first compound 0.0999 µM) 8.95% | viability, T/C [4] 3.1% | viability, T/C (second compound 0.316 µM, first compound 0.0999 µM) 10% | viability, T/C [6] 3.09% | viability, T/C [8] 2.05% | viability, T/C [10] 2.04% | viability, T/C (second compound 10 µM, first compound 0.0999 µM) 7.8% | viability, T/C [12] 1.03%
7.52 nM: IC50 (second compound 1 µM)
13.3 nM: IC50 (second compound 3.16 µM)
11.8 nM: IC50 (second compound 0.1 µM)

COc1ncnc(C2CC2)c1-c1ncc2cnn(Cc3ccc(-c4nc(C(F)(F)F)cn4C(C)C)cc3)c2n1 + CN(C)c1ccc(Nc2c3ccc(NC(=O)CCN4CCCC4)cc3nc3cc(NC(=O)CCN4CCCC4)ccc23)cc1
> 10000 nM: IC50 (second compound 0.0316 µM) | IC50 (second compound 0.1 µM) | IC50 (second compound 0.316 µM) | IC50 (second compound 1 µM) | IC50 (second compound 3.16 µM) | IC50 (second compound 10 µM)
inactive: viability, T/C [1] 99% | viability, T/C (second compound 0.0316 µM, first compound 0.1 µM) 88.7% | viability, T/C [2] 79.4% | viability, T/C (second compound 0.0316 µM, first compound 1 µM) 77.8% | viability, T/C (second compound 0.0316 µM, first compound 3.16 µM) 77.8% | viability, T/C (second compound 0.0316 µM, first compound 10 µM) 97.8% | viability, T/C [3] 91.4% | viability, T/C (second compound 0.1 µM, first compound 0.1 µM) 80.4% | viability, T/C [4] 82.2% | viability, T/C (second compound 0.1 µM, first compound 1 µM) 62.4% | viability, T/C (second compound 0.1 µM, first compound 3.16 µM) 81.4% | viability, T/C (second compound 0.1 µM, first compound 10 µM) 76.7% | viability, T/C [5] 73% | viability, T/C (second compound 0.316 µM, first compound 0.1 µM) 85.5% | viability, T/C [6] 86.5% | viability, T/C (second compound 0.316 µM, first compound 1 µM) 81.1% | viability, T/C (second compound 0.316 µM, first compound 3.16 µM) 87.5% | viability, T/C (second compound 0.316 µM, first compound 10 µM) 82.1% | viability, T/C [7] 69.2% | viability, T/C (second compound 1 µM, first compound 0.1 µM) 88.2% | viability, T/C [8] 81.5% | viability, T/C (second compound 1 µM, first compound 1 µM) 79% | viability, T/C (second compound 1 µM, first compound 3.16 µM) 85.7% | viability, T/C (second compound 1 µM, first compound 10 µM) 82.1% | viability, T/C [9] 74.5% | viability, T/C (second compound 3.16 µM, first compound 0.1 µM) 87.6% | viability, T/C [10] 86.6% | viability, T/C (second compound 3.16 µM, first compound 1 µM) 84.3% | viability, T/C (second compound 3.16 µM, first compound 3.16 µM) 86.4% | viability, T/C (second compound 3.16 µM, first compound 10 µM) 91.8% | viability, T/C [11] 75.5% | viability, T/C (second compound 10 µM, first compound 0.1 µM) 81.7% | viability, T/C [12] 86.8% | viability, T/C (second compound 10 µM, first compound 1 µM) 77.2% | viability, T/C (second compound 10 µM, first compound 3.16 µM) 89% | viability, T/C (second compound 10 µM, first compound 10 µM) 84.7%
